Measurements from US20170137481A1, “Use of Cell-Permeable Peptide Inhibitors of the JNK Signal Transduction Pathway for the Treatment of Various Diseases” (Xigen Inflammation Ltd., priority 2014, published 2017).
Marks after values point to notes of the source that are not given here.

Columns and labels:
[1] = test system: post-surgery intraocular inflammation; experiment: Phase II post-surgery intraocular inflammation, efficacy; type: in vivo, human; conditions: for Cleared ocular inflammation (cell grade 0 and flare grade 0): Yes: Dexamethasone
Procedure: The objectives of the present study were to evaluate the efficacy and safety of a single sub-conjunctival injection of XG-102 90 or 900 μg administered within maximally 3 hours after the end of the surgical procedure compared to dexamethasone eye drops administered 4 times/day for 21 days in post-operative intraocular inflammation.
In accordance with this trial's primary objective, the primary outcome was evaluated by the mean anterior chamber cells grade at day 28 post-administration of the sub-conjunctival injection of study treatment comparing XG-102 900 μg with dexamethasone eye drops.
The present trial was a randomized (1:1:1), controlled, double-blind, multicenter non-inferiority clinical trial with three parallel groups of equal size. Randomization, which was blocked by center, was performed using a web-based, secure, randomization system. Eligible patients were male or female (post-menopausal, or sterile by tubal ligation or hysterectomy), who were >18 years of age and who had undergone one of the following ocular surgeries: (a) anterior and posterior segment combined surgery which may include surgery for: cataract and retinal detachment, cataract and epimacular membrane and/or cataract and macular hole or (b) glaucoma surgery or (c) complex posterior segment surgery or (d) complicated intraocular surgery which may include cataract surgery associated with diabetic retinopathy and/or complicated retinal detachment ocular surgery. Patients were not eligible to participate if any of the following exclusion criteria was present at the moment of randomization:
The study protocol planned that 138 patients would be randomized and administered the sub-conjunctival injection of study treatment. […] Patients were randomly allocated to either XG-102 90 or 900 μg which was administered as a single, sub-conjunctival injection of 250 μl within maximally 3 hours after the end of the eye surgery or to dexamethasone eye drops, which were instilled 4 times per day for 21 days. The first study treatment eye drop was instilled within maximally 15 minutes after the sub-conjunctival injection of study treatment. In order to maintain the blinding, patients randomized to the XG-102 group received eye drops containing a NaCl 0.9% solution and patients randomized to the dexamethasone group were administered a sub-conjunctival injection containing NaCl 0.9%. Patients were followed for, in total, 28 (±5) days after administration of the sub-conjunctival injection of study treatment.
Patients were randomized to one of the three study groups: • 1. A single sub-conjunctival injection of XG-102 90 μg+placebo eye drops 4 times/day for 21 days or • 2. A single sub-conjunctival injection of XG-102 900 μg+placebo eye drops 4 times/day for 21 days or • 3. A single sub-conjunctival injection of NaCl 0.9%+dexamethasone eye drops 4 times/day for 21 days.
The primary objective was evaluated by the mean anterior chamber cells grade at day 28 post-administration of the sub-conjunctival administration of study treatment. The criteria for evaluation of the primary objective was
The ophthalmology examinations were performed at baseline (i.e. either on the day of surgery, but before the surgery was performed). […] In order to reduce operator variability, the sites were instructed that, where possible, the same operator should perform all ophthalmology examinations for the same patient throughout the trial. The ophthalmology measurements were performed in accordance with the study-specific instructions. The latter were reviewed and discussed with the site teams during the initiation visit and during each monitoring visit. For the determination of the cell/flare count and cell/flare grade, the SUN Working Group's consensus was used by the sites using the SUN Working group definitions (“Standardization of Uveitis Nomenclature for Reporting Clinical Data. Results of the First International Workshop.,” American Journal of Ophthalmology, vol 140, no. 3, pp. 509-516, 2005). […]

[2] = test system: patients who underwent complex ocular surgery; experiment: Phase II post-surgery intraocular inflammation, safety
Excerpt: The criteria for evaluation of safety were:
An AE is therefore any unfavorable and unintended sign, symptom or disease temporally associated with the use of a medicinal product, whether or not considered related to the medicinal product.
The present study was a double-blind study. All patients who were randomized and for whom the sub-conjunctival injection was started are included in the safety analysis by dose group. […] If the study treatment eye drops were stopped prematurely (i.e. before day 21), the patients concerned continued follow-up until day 28, in accordance with the study protocol.
Investigators assessed (in a blinded manner) the relationship of each reported AE to any of the study treatments. An event was considered to be related to study treatment if the Investigator ticked either ‘possible’ or ‘probable’ as the reply to this question.

[3] = test system: light-induced photoreceptor cell death in Sprague-Dawley rats; experiment: Photoreceptor light damage in albino rat (ERG, ONL thickness); type: in vivo
Procedure: The aim of this study was to investigate the dose effect of XG-102 on light-induced photoreceptor cell death.
Test item (XG-102: 30 mg/ml, 3 mg/ml, and 0.3 mg/ml) and vehicle (0.9% NaCl) were administered by intravitreal injection in right eyes the day before induction. The reference (Phenyl-N-test-Butylnitrone (PBN) (50 mg/kg)) and vehicle were intraperitoneally injected 30 min before induction then, 3 times during 12 hours of light exposition, then once after induction. Animals were placed in constant light (7000 lux) for 24 h. Electroretinograms (ERG) were recorded before light treatment and on days 9, 16 and 23 after induction. Eyes were then taken for histology and outer nuclear layer (ONL) thickness assessment. The table below summarizes the allocation of animals in treatment groups:
For the intravitreal injection animals were anesthetized by intramuscular injection of a mixture of xylazine/ketamine. Test item (5 μl) and vehicle (5 μl) were injected in the right eye. The injection was performed under an operating microscope in the supratemporal area at pars plana using a 33G-needle mounted on a 50 μl Hamilton. The filled syringe was mounted into the UltraMicroPump III to achieve accurate injection in microliter range. Reference and vehicle were injected intraperitoneally at a dose volume of 2.5 ml/kg using a 30G-needle mounted on a 1 ml-syringe.
Light Exposure: The rats that had been dark-adapted overnight were exposed for 24 hours to a continuous white fluorescent light (7000 lx) in clear plastic cages. Each cage contained one rat. After exposure, the rats returned to rearing cyclic light conditions.
The body weight of all animals was recorded before the start of the study then at the end of the study. Each day, the general behavior and the aspect of all animals were observed. ERG was recorded before induction and 7, 14 and 21 days after cessation of exposure (Days 9, 16 and 23) on right eyes of dark-adapted and anesthezied animals. The latency times (for a- and b-wave) and the a-wave and b-wave amplitudes were measured for each ERG; the latency times were expressed as millisecond and the a-wave and b-wave as a percentage of the baseline value obtained before light exposure. 15 min before measurement 10 μl Mydriaticum® (0.5% tropicamide) were instilled for pupillary dilatation.
ERG Parameters: • Color: white maximum. • Maximum intensity: 2.6 cd.s/m^2 (0 dB); Duration 0.24 ms; number of flash: 1. • Filter: 50 Hz. • Impedence Threshold: 90 kΩ.
Measurement of the ONL Thickness: After ERG testing, animal was euthanized by an overdose of pentobarbital and the right eyes were enucleated, fixed and embedded in paraffin. Sections (5 μm thick) were performed along the vertical meridian and stained with Trichrome-Masson. The vertical meridian included the optic nerve.
Group mean values and standard deviation were calculated. A statistical Mann and Whitney test was used to evaluate the differences between pair-wise groups. For comparison between time-point into each vehicle groups, a Friedman test was used.

[4] = test system: Endotoxin-Induced Uveitis in Lewis rats; experiment: Endotoxin-Induced Uveitis (EIU), action duration after subconjunctival administration; type: in vivo, rat
Excerpt: The aim of this study was to evaluate the duration of action of SDD-1002 following sub-conjunctival administration in a rat model of EIU.
90 male Lewis rats were used, age approximately 6-8 weeks (at the induction), 4 weeks (at the injection for the Day-28), 5 weeks (at the injection for the Day-21), 6 weeks (at the injection for the Day-14, Day-7 and for the Day 0), 7 weeks (at the injection for Day-2 and Day-1), and housed by five in standard cages. Animals were allocated to the following groups: Group No. Treatment Dose Time-point
Thus, each animal received a single subconjunctival injection of either XG-102 (20 μg/eye), saline (0.9% NaCl) vehicle control or Solumedrol® (20 μg/eye) into each eye. Methylprednisolone (Solumedrol®) is most commonly used in uveitis as sub-conjunctival treatment.
On Day 0, ocular inflammation was induced by a single footpad injection of liposaccharide (LPS, 1 mg/kg, 0.5 mL/kg Sigma # L6511) on anesthetized animals. LPS powder was reconstituted the day of induction. XG-102 was administered by a single injection (20 microgram/5 microL) in each eye on Day-28 or Day-21 or Day-14 or Day-7 or Day-2 or Day-1 or Day 0 (immediately before induction). Saline control and reference item (Solumedrol®; 20 μg/eye) were administered by a single injection in each eye on Day 0 (immediately before induction).
Animals were examined with a slit-lamp before XG-102 administration (baseline) before induction (Day 0) then 24 h after induction (Day 1). The inflammation was graded using a scoring system as described by Devos A., Van Haren M., Verhagen C., Hoek Zema R., Kijlstra A: Systemic anti-tumor necrosis factor antibody treatment exacerbates Endotoxin Induced Uveitis in the rat. Exp. Eye. Res. 1995; 61: 667-675. Briefly, flare, miosis and hypopion were scored for absence (0), or presence (1), iris hyperemia and cells in the anterior chamber were scored for absence (0), or mild (1) or severe presence (2). The maximum score (sum of the five parameter scores) was 7.
At the end of the evaluation (24 h after induction), animals were euthanized by intravenous injection of overdosed pentobarbital. The aqueous humor was collected immediately for each eye. For quantification of Cellular Infiltration in Aqueous Humor (AH), the sample was diluted 10-fold with PBS before detection. The number of infiltrated cells was manually counted after Giemsa staining under microscope.

[5] = molecular target: JNK of primary mouse cortical neuron cultures; experiment: cell-based or functional assay
[6] = Dexamethasone group, blinded assessment
[7] = 20 μg/eye, both eyes treated on the day of induction, 24 h after LPS
[8] = 20 μg/eye, both eyes treated on the day of induction, vs vehicle

C[C@@H]1C[C@H]2[C@@H]3CCC4=CC(=O)C=C[C@]4(C)[C@@]3(F)[C@@H](O)C[C@]2(C)[C@@]1(O)C(=O)CO [Dexamethasone, reference compound]
Cleared ocular inflammation (cell grade 0 and flare grade 0): Yes ([1]; Visit 1 (21 hours), Full analysis population): 4 (8.2%) # patients (%)
Cleared ocular inflammation (cell grade 0 and flare grade 0): Yes ([1]; Visit 1 (21 hours), Per-protocol population): 4 (8.2%) # patients (%)
Cleared ocular inflammation (cell grade 0 and flare grade 0): Yes ([1]; Visit 2 (7 days), Full analysis population): 9 (18.8%) # patients (%)
Cleared ocular inflammation (cell grade 0 and flare grade 0): Yes ([1]; Visit 2 (7 days), Per-protocol population): 9 (18.8%) # patients (%)
Cleared ocular inflammation (cell grade 0 and flare grade 0): Yes ([1]; Visit 3 (14 days), Full analysis population): 10 (20.4%) # patients (%)
Cleared ocular inflammation (cell grade 0 and flare grade 0): Yes ([1]; Visit 3 (14 days), Per-protocol population): 10 (21.3%) # patients (%)
Cleared ocular inflammation (cell grade 0 and flare grade 0): Yes ([1]; Visit 4 (28 days), Full analysis population): 17 (35.4%) # patients (%)
Cleared ocular inflammation (cell grade 0 and flare grade 0): Yes ([1]; Visit 4 (28 days), Per-protocol population): 15 (34.9%) # patients (%)
percentage of patients for whom rescue medication was introduced ([1]; eye drops 4 times/day, 21 days): 4.0%
AEs possibly or probably related to study treatment as assessed by the Investigator ([2]; Dexamethasone (N = 50)): 15 Total # events
Adverse events which led to an interruption of study treatment ([2]; Dexamethasone dose group): 3 (5.5%) number of events (% of reported events)
Reported AEs by severity: Mild ([2]; Dexamethasone dose group): 42 (76.4%) number of events (%)
Reported AEs by severity: Moderate ([2]; Dexamethasone dose group): 9 (16.4%) number of events (%)
Reported AEs by severity: Severe ([2]; Dexamethasone dose group): 4 (7.3%) number of events (%)
AEs considered by the Investigator to be related to Dexamethasone [2, 6]: 2 (3.6%) # events (%)
AEs considered by the Investigator to be related to XG-102 [2, 6]: 13 (23.64%) # events (%)
AEs possibly or probably related to study medication ([2]; dexamethasone group): 15 events
Intraocular pressure increased, patients ([2]; dexamethasone group): 14%
events in SOC EYE DISORDERS ([2]; dexamethasone group): 30 events
events resulting in premature withdrawal of study treatment eye drops ([2]; dexamethasone group): 3 events
patients with SAE ([2]; dexamethasone group): 2 patients
patients with event in SOC EYE DISORDERS ([2]; dexamethasone group): 16 (32%)
percentage of patients with an AE within 24 hours after administration ([2]; dexamethasone group): 30%
total number of AEs reported ([2]; dexamethasone group): 55

CC(C)(C)[N+]([O-])=Cc1ccccc1 [PBN, Phenyl-N-tert-Butylnitrone, reference compound]
recovery of the a-wave (% of baseline) ([3]; 50 mg/kg i.p., Day 9): 70.4%
recovery of the b-wave (% of baseline) ([3]; 50 mg/kg i.p., Day 9): 100%
recovery of the a-wave (% of baseline) ([3]; 50 mg/kg i.p., Day 16): 79.6%
recovery of the b-wave (% of baseline) ([3]; 50 mg/kg i.p., Day 16): 103.6%
loss of mean ONL thickness versus untreated eyes ([3]; 50 mg/kg i.p., Day 23): 16%
recovery of the a-wave (% of baseline) ([3]; 50 mg/kg i.p., Day 23): 76.2%
recovery of the b-wave (% of baseline) ([3]; 50 mg/kg i.p., Day 23): 102.4%
ERG B-wave amplitude, percent of baseline, Mean ± SD ([3]; rat, in vivo, ip, 50 mg/kg): 100 ± 18.6%
ONL thickness ([3]; rat, in vivo, ip, 50 mg/kg): 34.05 ± 4.00 μm
ONL thickness Loss (% comparison with control non-induced eye) ([3]; rat, in vivo, ip, 50 mg/kg): 16%

C[C@H]1C[C@@H]2[C@H]([C@@H](O)C[C@@]3(C)[C@H]2CC[C@]3(O)C(=O)CO)[C@@]2(C)C=CC(=O)C=C12 [methylprednisolone, Methylprednisolone]
clinical score, mean ([4]; 20 μg/eye on Day 0): 2.0±0.2
clinical score, median ([4]; 20 μg/eye on Day 0): 2
reduction of clinical score ([4]; 20 μg/eye on Day 0): 50%
EIU clinical score, Mean ± SEM (n = 20) [4, 7]: 2.0 ± 0.2
EIU clinical score, Median [4, 7]: 2.0
Inflammatory cells infiltrated into aqueous humor, Mean ± SEM (n = 20) [4, 7]: 3170 ± 276 cells/μL
Inflammatory cells infiltrated into aqueous humor, Median [4, 7]: 3385 cells/μL
Reduction of clinical scores [4, 8]: 50%
Reduction of leucocytes [4, 8]: 2%

D-TAT-IB1(s) (peptide)
JNK activation (immunoblot) in Aβ42-stressed PKR-/- cortical neurons; peptide at 10 µM [5]: -35%
JNK activity (pJNK/JNK ratio, immunoblot) in cortical neurons under H2O2 oxidative stress; peptide at 10 µM [5]: 45%
c-Jun phosphorylation (immunoblot) in Aβ42-stressed WT cortical neurons; peptide at 10 µM [5]: -74%
